According to US12492188B2, “1H-benzo[D]imidazole derivatives as TLR9 inhibitors for the treatment of fibrosis” (BRISTOL-MYERS SQUIBB COMPANY, priority 2020, dated 2025):
Where two headings read alike, the source gives them in different places.

Tests used:
Type in all cases: cell-based
[1] = biological target: T1, human TLR9 (Homo sapiens, UniProt Q9NR96); test: TLR9 inhibition reporter assay (HEK-Blue cells, secreted embryonic alkaline phosphatase reporter)
T1 construct: host or cells: HEK-Blue cells (HEK293-derived reporter line)
T1 sequence (Q9NR96 26-1032): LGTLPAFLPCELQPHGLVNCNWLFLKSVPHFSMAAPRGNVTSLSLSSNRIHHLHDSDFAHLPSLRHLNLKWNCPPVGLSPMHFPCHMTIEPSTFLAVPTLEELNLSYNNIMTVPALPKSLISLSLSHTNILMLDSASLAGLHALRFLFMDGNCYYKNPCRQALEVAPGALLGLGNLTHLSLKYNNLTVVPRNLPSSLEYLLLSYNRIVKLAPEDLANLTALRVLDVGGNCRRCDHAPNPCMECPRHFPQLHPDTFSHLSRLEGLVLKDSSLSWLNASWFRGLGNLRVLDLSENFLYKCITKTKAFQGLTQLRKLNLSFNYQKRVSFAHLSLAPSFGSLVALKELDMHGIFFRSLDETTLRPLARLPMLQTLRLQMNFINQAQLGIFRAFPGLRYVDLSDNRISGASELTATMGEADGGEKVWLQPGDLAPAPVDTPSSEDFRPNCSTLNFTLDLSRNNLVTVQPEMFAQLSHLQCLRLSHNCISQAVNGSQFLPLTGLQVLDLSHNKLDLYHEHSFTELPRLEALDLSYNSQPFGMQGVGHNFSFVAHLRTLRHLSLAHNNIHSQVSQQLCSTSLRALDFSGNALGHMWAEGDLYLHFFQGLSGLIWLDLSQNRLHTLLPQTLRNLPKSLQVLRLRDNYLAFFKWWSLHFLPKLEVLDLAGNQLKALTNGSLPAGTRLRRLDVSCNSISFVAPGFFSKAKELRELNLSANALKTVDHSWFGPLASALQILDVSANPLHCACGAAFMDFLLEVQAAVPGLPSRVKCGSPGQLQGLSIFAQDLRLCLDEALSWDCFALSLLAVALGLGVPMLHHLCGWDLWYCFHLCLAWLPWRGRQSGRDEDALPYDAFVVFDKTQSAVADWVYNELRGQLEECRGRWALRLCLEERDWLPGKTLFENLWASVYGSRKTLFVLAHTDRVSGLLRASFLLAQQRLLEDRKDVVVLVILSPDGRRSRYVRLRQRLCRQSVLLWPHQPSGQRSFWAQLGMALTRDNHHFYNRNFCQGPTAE
In short: (§1)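 Inhibitors are tested in dose response (0.05 nM–50 μM) on HEK-Blue reporter cells expressing human TLR7, TLR8 or TLR9. After 30 min at room temperature, each line is stimulated with its own agonist (gardiquimod 7.5 μM, R848 15.9 μM or ODN2006 5 nM, final) and SEAP is measured 22 h later.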

[2] = biological target: T2, human TLR7 (Homo sapiens, UniProt Q9NYK1); test: TLR7 inhibition reporter assay (HEK-Blue cells, secreted embryonic alkaline phosphatase reporter); conditions: HEK-Blue cells overexpressing human TLR7, stimulated with gardiquimod 7.5 μM; read-out: TLR 7 IC50
T2 construct: host or cells: HEK-Blue cells (HEK293-derived reporter line)
T2 sequence (Q9NYK1 27-1049): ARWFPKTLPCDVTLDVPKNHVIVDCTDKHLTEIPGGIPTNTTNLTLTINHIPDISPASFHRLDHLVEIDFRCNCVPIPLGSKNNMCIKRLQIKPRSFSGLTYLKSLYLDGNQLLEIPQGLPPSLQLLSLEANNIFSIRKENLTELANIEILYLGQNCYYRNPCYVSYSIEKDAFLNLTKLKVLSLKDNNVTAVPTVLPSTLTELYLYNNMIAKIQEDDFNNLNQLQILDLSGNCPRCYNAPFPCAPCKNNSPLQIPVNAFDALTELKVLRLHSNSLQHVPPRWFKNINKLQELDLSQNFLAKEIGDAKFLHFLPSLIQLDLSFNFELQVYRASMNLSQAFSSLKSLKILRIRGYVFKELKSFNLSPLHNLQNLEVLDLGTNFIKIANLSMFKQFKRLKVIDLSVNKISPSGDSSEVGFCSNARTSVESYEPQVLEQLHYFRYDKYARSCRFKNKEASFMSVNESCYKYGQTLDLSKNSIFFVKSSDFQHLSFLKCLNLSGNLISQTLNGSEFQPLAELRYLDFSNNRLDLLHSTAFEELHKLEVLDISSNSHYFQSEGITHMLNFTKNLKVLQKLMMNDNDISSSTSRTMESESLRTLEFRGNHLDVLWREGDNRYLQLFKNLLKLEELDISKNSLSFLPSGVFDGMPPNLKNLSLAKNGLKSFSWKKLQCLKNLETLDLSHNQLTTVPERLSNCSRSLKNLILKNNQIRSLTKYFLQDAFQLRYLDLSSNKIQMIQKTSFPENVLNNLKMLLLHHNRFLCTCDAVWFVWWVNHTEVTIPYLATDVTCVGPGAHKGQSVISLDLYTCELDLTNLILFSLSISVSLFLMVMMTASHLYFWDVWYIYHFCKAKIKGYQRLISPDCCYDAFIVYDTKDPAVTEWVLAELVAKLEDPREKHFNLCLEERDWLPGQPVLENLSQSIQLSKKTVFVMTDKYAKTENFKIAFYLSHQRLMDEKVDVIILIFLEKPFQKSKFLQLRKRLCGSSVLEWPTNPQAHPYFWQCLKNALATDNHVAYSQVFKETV
In short: as §1

[3] = biological target: T3, human TLR8 (Homo sapiens, UniProt Q9NR97); test: TLR8 inhibition reporter assay (HEK-Blue cells, secreted embryonic alkaline phosphatase reporter); conditions: HEK-Blue cells overexpressing human TLR8, stimulated with R848 15.9 μM; read-out: TLR 8 IC50
T3 construct: host or cells: HEK-Blue cells (HEK293-derived reporter line)
T3 sequence (Q9NR97 27-1041): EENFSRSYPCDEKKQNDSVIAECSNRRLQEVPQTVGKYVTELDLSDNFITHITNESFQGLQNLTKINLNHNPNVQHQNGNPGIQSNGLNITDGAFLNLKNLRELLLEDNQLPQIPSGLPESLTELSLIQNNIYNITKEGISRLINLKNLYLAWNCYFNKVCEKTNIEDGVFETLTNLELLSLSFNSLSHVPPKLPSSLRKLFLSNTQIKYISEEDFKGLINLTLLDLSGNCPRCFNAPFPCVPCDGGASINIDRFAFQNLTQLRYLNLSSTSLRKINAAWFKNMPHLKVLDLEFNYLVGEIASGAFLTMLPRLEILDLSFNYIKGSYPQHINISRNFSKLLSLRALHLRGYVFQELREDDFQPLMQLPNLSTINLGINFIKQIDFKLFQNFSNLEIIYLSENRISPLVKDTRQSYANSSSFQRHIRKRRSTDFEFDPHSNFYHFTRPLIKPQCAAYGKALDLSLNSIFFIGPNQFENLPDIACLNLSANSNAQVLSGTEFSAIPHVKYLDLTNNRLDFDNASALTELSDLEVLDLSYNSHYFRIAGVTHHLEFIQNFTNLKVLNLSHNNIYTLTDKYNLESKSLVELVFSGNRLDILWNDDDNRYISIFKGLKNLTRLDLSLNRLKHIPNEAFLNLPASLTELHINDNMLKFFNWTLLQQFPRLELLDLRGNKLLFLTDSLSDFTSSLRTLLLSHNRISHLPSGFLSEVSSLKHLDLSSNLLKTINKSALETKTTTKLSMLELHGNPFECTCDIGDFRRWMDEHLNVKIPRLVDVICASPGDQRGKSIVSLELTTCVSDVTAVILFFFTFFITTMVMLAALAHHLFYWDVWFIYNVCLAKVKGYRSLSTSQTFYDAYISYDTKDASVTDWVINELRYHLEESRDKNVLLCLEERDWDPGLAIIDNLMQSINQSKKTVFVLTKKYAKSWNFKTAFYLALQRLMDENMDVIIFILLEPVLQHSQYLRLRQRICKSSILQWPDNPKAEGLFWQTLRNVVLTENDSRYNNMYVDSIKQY
In short: as §1

[4] = HEK-Blue cells overexpressing human TLR9, stimulated with ODN2006 5 nM, read-out: TLR 9 IC50

| Structure (SMILES) | IC50 [1] [µM] | IC50 [1, 4] [µM] | IC50 [2] [µM] | IC50 [3] [µM] | IC50 ([1]; HEK-Blue human TLR9 reporter cells) [µM] |
| --- | --- | --- | --- | --- | --- |
| COCCN1CCC(N2CCC(c3ccc4nc(-c5ccc(S(C)(=O)=O)cc5)n(C)c4c3F)CC2)CC1 [Example 265, 7-fluoro-6-(1′-(2-methoxyethyl)-[1,4′-bipiperidin]-4-yl)-1-methyl-2-(4-(methylsulfonyl)phenyl)-1H-benzo[d]imidazole] | 1 | 1.04 | 7.6 | > 50 |  |
| Cn1c(-c2ccc(S(C)(=O)=O)cc2)nc2ccc(C3CCN(C4CC5CCC(C4)N5CC4CC4)CC3)c(F)c21 (centres unmarked) [Example 268, 6-(1-(8-(cyclopropylmethyl)-8-azabicyclo[3.2.1]octan-3-yl)piperidin-4-yl)-7-fluoro-1-methyl-2-(4-(methylsulfonyl)phenyl)-1H-benzo[d]imidazole] | 0.06 | 0.06 | 27.6 | > 50 |  |
| Cn1c(-c2ccc(S(C)(=O)=O)cc2)nc2ccc(C3CCN(C4CC5CCC(C4)N5C4CCOCC4)CC3)c(F)c21 (centres unmarked) [Example 275, 7-fluoro-1-methyl-2-(4-(methylsulfonyl)phenyl)-6-(1-(8-(tetrahydro-2H-pyran-4-yl)-8-azabicyclo[3.2.1]octan-3-yl)piperidin-4-yl)-1H-benzo[d]imidazole] | 0.089 | 0.089 | > 50 | > 50 |  |
| Cn1c(-c2ccc(S(C)(=O)=O)cc2)nc2c(F)cc(C3CCN(C4CCN(C5COC5)CC4)CC3)cc21 [Example 279, 4-fluoro-1-methyl-2-(4-(methylsulfonyl)phenyl)-6-(1′-(oxetan-3-yl)-[1,4′-bipiperidin]-4-yl)-1H-benzo[d]imidazole] | 1.2 | 1.22 | 19.5 | > 50 |  |
| CC(C)CN1C2CCC1CC(N1CCC(c3cc(F)c4nc(-c5ccc(S(C)(=O)=O)cc5)n(C)c4c3)CC1)C2 (centres unmarked) [Example 284, 4-fluoro-6-(1-(8-isobutyl-8-azabicyclo[3.2.1]octan-3-yl)piperidin-4-yl)-1-methyl-2-(4-(methylsulfonyl)phenyl)-1H-benzo[d]imidazole] |  | 0.118 | 5.3 | > 50 | 0.12 |

The remaining lines, values ahead:

| IC50 [1] [µM] | IC50 [1, 4] [µM] | IC50 [2] [µM] | IC50 [3] [µM] | IC50 ([1]; HEK-Blue human TLR9 reporter cells) [µM] | Structure (SMILES) |
| --- | --- | --- | --- | --- | --- |
| 0.18 | 0.176 | 12 | 21.5 |  | Cn1c(-c2ccc(S(C)(=O)=O)cc2)nc2ccc(C3CCN(C4CC5CCC(C4)N5CC4CC4)CC3)c(F)c21 (centres unmarked) [Example 269, 6-(1-(8-(cyclopropylmethyl)-8-azabicyclo[3.2.1]octan-3-yl)piperidin-4-yl)-7-fluoro-1-methyl-2-(4-(methylsulfonyl)phenyl)-1H-benzo[d]imidazole] |
| 0.3 | 0.303 | 7.5 | > 50 |  | Cn1c(-c2ccc(S(C)(=O)=O)cc2)nc2ccc(C3CCN(C4CC5CCC(C4)N5C4COC4)CC3)c(F)c21 (centres unmarked) [Example 273, 7-fluoro-1-methyl-2-(4-(methylsulfonyl)phenyl)-6-(1-(8-(oxetan-3-yl)-8-azabicyclo[3.2.1]octan-3-yl)piperidin-4-yl)-1H-benzo[d]imidazole] |
| 0.051 | 0.051 | 26.1 | > 50 |  | Cn1c(-c2ccc(S(C)(=O)=O)cc2)nc2ccc(C3CCN(C4CC5CCC(C4)N5C4CCOCC4)CC3)c(F)c21 (centres unmarked) [Example 274, 7-fluoro-1-methyl-2-(4-(methylsulfonyl)phenyl)-6-(1-(8-(tetrahydro-2H-pyran-4-yl)-8-azabicyclo[3.2.1]octan-3-yl)piperidin-4-yl)-1H-benzo[d]imidazole] |
| 0.058 | 0.058 | 9 | > 50 |  | CC(C)CN1CCC(N2CCC(c3cc(F)c4nc(-c5ccc(S(C)(=O)=O)cc5)n(C)c4c3)CC2)CC1 [Example 278, 4-fluoro-6-(1′-isobutyl-[1,4′-bipiperidin]-4-yl)-1-methyl-2-(4-(methylsulfonyl)phenyl)-1H-benzo[d]imidazole] |
| 0.073 | 0.073 | 0.7 | > 50 |  | Cn1c(-c2ccc(S(C)(=O)=O)cc2)nc2c(F)cc(C3CCN(C4CCN(C5CCOCC5)CC4)CC3)cc21 [Example 280, 4-fluoro-1-methyl-2-(4-(methylsulfonyl)phenyl)-6-(1′-(tetrahydro-2H-pyran-4-yl)-[1,4′-bipiperidin]-4-yl)-1H-benzo[d]imidazole] |
| 0.12 | 0.124 | 7 | > 50 |  | COCCN1CCC(N2CCC(c3cc(F)c4nc(-c5ccc(S(C)(=O)=O)cc5)n(C)c4c3)CC2)CC1 [Example 281, 4-fluoro-6-(1′-(2-methoxyethyl)-[1,4′-bipiperidin]-4-yl)-1-methyl-2-(4-(methylsulfonyl)phenyl)-1H-benzo[d]imidazole] |
